Source: ChEMBL document CHEMBL1128841, “Purification of pig and rat liver squalene epoxidase by affinity chromatography” (Bioorg Med Chem Lett, 1995)

Molecular target: Squalene monooxygenase (Rattus norvegicus, UniProt P52020)
Test: The compound was tested for its inhibitory activity against rat Squalene epoxidase

Sequence of Squalene monooxygenase (P52020 whole entry): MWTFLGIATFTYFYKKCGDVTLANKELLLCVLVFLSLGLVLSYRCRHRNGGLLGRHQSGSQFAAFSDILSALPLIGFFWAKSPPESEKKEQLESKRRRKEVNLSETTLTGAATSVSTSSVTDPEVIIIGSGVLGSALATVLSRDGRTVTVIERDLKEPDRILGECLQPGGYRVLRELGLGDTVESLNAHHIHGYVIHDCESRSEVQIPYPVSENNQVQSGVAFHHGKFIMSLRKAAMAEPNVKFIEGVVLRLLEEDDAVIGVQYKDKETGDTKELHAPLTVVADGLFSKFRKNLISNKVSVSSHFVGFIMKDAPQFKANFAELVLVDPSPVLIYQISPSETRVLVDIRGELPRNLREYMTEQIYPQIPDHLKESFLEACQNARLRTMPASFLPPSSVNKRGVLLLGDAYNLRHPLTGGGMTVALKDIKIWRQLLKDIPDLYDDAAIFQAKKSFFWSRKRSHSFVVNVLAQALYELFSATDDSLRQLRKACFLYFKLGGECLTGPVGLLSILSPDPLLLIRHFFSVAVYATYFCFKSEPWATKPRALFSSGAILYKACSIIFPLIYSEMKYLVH

Structure (SMILES): CNCCC/C(C)=C/CC/C(C)=C/CC/C=C(\C)CC/C=C(\C)CCCNCCCCCCN
- IC50: 1000 nM
